“Also recorded” adds a separate entry of the source. Where a name gives a salt, the structure may show the parent alone.
Legend:
[1] = biological target: T1, 5-HT1A receptor (Rattus norvegicus, UniProt P19327); experiment: [3H]-8-OH-DPAT radioligand binding assay; conditions: for inhibition at 300 µM: read-out: 5-HT1A Binding Inhibition (%) [300 μM]
T1 sequence (P19327 1-422): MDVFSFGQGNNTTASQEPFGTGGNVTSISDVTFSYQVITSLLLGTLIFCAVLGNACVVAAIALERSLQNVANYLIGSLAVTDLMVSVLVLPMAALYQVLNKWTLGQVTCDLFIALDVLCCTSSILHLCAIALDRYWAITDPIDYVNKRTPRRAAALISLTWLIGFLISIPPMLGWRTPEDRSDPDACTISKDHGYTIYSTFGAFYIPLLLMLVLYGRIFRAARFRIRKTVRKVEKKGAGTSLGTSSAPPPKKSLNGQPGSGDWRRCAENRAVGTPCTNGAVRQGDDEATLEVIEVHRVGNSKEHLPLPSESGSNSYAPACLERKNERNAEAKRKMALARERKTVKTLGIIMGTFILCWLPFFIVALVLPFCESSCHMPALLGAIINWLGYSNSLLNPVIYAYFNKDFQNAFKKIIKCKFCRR

[2] = tested on: BDZ-bs of the GABAA receptor; experiment: [3H]-FNZ radioligand binding assay; conditions: [3H]-FNZ displacement, compound at 300 μM, rat cerebral cortex membranes
[3] = biological target: μ-opioid receptor (Rattus norvegicus, UniProt P33535); experiment: [3H]-DAMGO radioligand binding assay; conditions: for inhibition at 300 µM: read-out: μ-opioid Binding inhibition (%) [300 μM]; for Ki: μ-opioid Ki, [3H]-DAMGO, rat forebrain membranes, Ki ± SEM, 2 determinations
[4] = tested on: mice; conditions: cited from earlier work
[5] = tested on: mice; conditions: cited from earlier work; remark: listed apart in the source
[6] = tested on: rats; conditions: cited from earlier work
[7] = tested on: mice; experiment: Spontaneous locomotor activity; type: in vivo; conditions: 10 and 30 mg/kg i.p., 5 min counts
[8] = Cell viability assay; type: cell-based, human; conditions: human, SH-SY5Y cells
[9] = PAMPA-BBB permeability assay; type: in vitro ADME; conditions: for Papp at 16 h, 50 µM: PAMPA, pH 7.4; for BBB penetration estimation Prediction: PAMPA-BBB binning by -logPe
[10] = tested on: mice; experiment: Elevated plus-maze test; type: in vivo
[11] = tested on: mice; experiment: Hot plate test; type: in vivo; conditions: plate 52.5 °C; for reaction (latency) time against thermal stimulus vs VEH: 30 mg/kg i.p.
[12] = tested on: mice; experiment: Acetic acid induced writhing test; type: in vivo; conditions: for number of writhes vs VEH: acetic acid 0.75%
[13] = tested on: mice; experiment: Tail suspension test; type: in vivo; conditions: 30 min before
[14] = tested on: mice; experiment: Rotarod; type: in vivo; conditions: 30 mg/kg i.p., cut-off 120 s
[15] = 10 mg/kg i.p., 30 min before, 5 min session

Sequence of μ-opioid receptor (P33535 whole entry): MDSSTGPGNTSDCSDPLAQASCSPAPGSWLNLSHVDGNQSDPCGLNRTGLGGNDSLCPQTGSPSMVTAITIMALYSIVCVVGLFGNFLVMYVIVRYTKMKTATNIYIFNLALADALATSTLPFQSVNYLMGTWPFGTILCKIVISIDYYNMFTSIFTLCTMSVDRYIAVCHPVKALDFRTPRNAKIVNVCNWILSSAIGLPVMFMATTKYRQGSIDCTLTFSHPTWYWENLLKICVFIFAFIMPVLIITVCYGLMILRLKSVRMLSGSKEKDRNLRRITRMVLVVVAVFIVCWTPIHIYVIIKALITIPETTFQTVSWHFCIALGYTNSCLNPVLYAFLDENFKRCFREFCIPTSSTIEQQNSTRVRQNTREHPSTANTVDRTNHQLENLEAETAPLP

Row | Compound | inhibition at 300 µM [1] [%] | BDZ-bs Binding inhibition (%) [300 μM] [2] | inhibition at 300 µM [3] [%] | Ki [1] [µM] | Ki [3] [µM] | further results
1 | O=C(/C=C/c1ccccc1)c1cc(Br)ccc1O [Compound 8, (2E)-1-(5-bromo-2-hydroxyphenyl)-3-phenyl-2-propen-1-one] | 40 to 60 | ++ (inhibition 40–60% (++)) | 20 to 40 | – | – | –
2 | O=C(/C=C/c1c(Cl)cccc1Cl)c1ccc(O)cc1O [2,6-dichloro-2′,4′-dihydroxychalcone] | – | – | – | – | – | lethality in the yohimbine-induced mortality test [4]: enhanced the mouse lethality; head-twitches in the 5-HT induced head-twitch test [5]: significantly increased head-twitches
3 | O=C(/C=C/c1ccc(O)c(O)c1)c1ccc(O)cc1O [butein] | – | – | – | – | – | effect in the plus-maze test [6]: anxiolytic-like effect
4 | COc1cc(C(=O)/C=C/c2ccccc2)ccc1O [Compound 13, (2E)-1-(4-hydroxy-3-methoxyphenyl)-3-phenyl-2-propen-1-one] | 40 to 60 | ++ (inhibition 40–60% (++)) | 40 to 60 | 287.8 ± 1.9 | – | –
5 | Nc1ccc(C(=O)/C=C/c2cccc([N+](=O)[O-])c2)cc1 [Compound 21, (2E)-1-(4-aminophenyl)-3-(3-nitrophenyl)-2-propen-1-one] | 60 to 90 | – | 40 to 60 | 473 ± 7.3 | – | –
6 | O=C(/C=C/c1ccccc1)c1cc(F)ccc1O [Compound 7, (2E)-1-(5-fluoro-2-hydroxyphenyl)-3-phenyl-2-propen-1-one] | 60 to 90 | ++ (inhibition 40–60% (++)) | 60 to 90 | 129 ± 2.7 | 29.5 ± 6.6 | –
7 | COc1ccc(C(=O)/C=C/c2ccccc2)c(O)c1 [Compound 3, (2E)-1-(2-hydroxy-4-methoxyphenyl)-3-phenyl-2-propen-1-one] | 20 to 40 | +++ (inhibition 60–90% (+++)) | 20 to 40 | – | – | –
8 | Cc1ccc(O)c(C(=O)/C=C/c2ccccc2)c1 [Compound 9, (2E)-1-(2-hydroxy-5-methylphenyl)-3-phenyl-2-propen-1-one] | 40 to 60 | +++ (inhibition 60–90% (+++)) | 60 to 90 | – | 46.3 ± 1.6 | spontaneous locomotor activity vs VEH [7]: did not show significant differences; viability at 48 h, 20 µM [8]: 88.5%; Papp at 16 h, 50 µM [9]: 25.1 ×10⁻⁶ cm/s; BBB penetration estimation Prediction [9]: CNS+ (CNS+, -logPe < 5.6, high permeability); percentage of open arm entries vs VEH [10, 15]: significantly increased; percentage of time spent in open arms vs VEH [10, 15]: significantly increased; number of total arm entries vs VEH ([10]; 30 mg/kg i.p.): significantly increased
9 | CN1CC[C@]23c4c5ccc(O)c4O[C@H]2[C@@H](O)C=C[C@H]3[C@H]1C5 [morphine, Morphine hydrochloride, reference compound] | – | – | – | – | – | latency time ([11]; 6 mg/kg i.p., 45 s cut-off): 42.6 s; abdominal cramps ([12]; 6 mg/kg i.p.): no abdominal cramps
10 | COc1cccc(O)c1C(=O)/C=C/c1ccccc1 [Compound 5, (2E)-1-(2-hydroxy-6-methoxyphenyl)-3-phenyl-2-propen-1-one] | > 90 | - (inhibition <20% (-)) | 60 to 90 | 13.3 ± 0.3 | 26.7 ± 1.6 | immobility time vs VEH ([13]; 10 mg/kg i.p.): not active
11 | Cc1ccc(C(=O)/C=C/c2ccccc2)cc1 [Compound 15, (2E)-1-(4-methylphenyl)-3-phenyl-2-propen-1-one] | 40 to 60 | +++ (inhibition 60–90% (+++)) | 20 to 40 | – | – | –
12 | O=C(/C=C/c1ccccc1)c1cc(Cl)ccc1O [Compound 6, (2E)-1-(5-chloro-2-hydroxyphenyl)-3-phenyl-2-propen-1-one] | 40 to 60 | ++ (inhibition 40–60% (++)) | 60 to 90 | – | 19.4 ± 3.5 | reaction (latency) time against thermal stimulus vs VEH [11]: Only chalcone 12 at 30 mg/kg caused significant increases; number of writhes vs VEH ([12]; 10 mg/kg i.p.): significantly reduced
13 | CN(C)c1ccc(/C=C/C(=O)c2ccccc2)cc1 [Compound 20, (2E)-3-[4-(dimethylamino)phenyl]-1-phenyl-2-propen-1-one] | 60 to 90 | - (inhibition <20% (-)) | 60 to 90 | 59.6 ± 1.5 | 23.8 ± 3.1 | –
14 | O=C(/C=C/c1ccccc1)c1cc(Br)cc(Br)c1O [Compound 10, (2E)-1-(3,5-dibromo-2-hydroxyphenyl)-3-phenyl-2-propen-1-one] | 60 to 90 | - (inhibition <20% (-)) | 60 to 90 | 1220 ± 469 | 32.5 ± 9.3 | –
15 | O=C(/C=C/c1ccc(Cl)cc1)c1ccccc1 [Compound 19, (2E)-3-(4-chlorophenyl)-1-phenyl-2-propen-1-one] | < 20 | + (inhibition 20–40% (+)) | 20 to 40 | – | – | –
16 | Cc1cc(C(=O)/C=C/c2ccccc2)c(O)c([N+](=O)[O-])c1 [Compound 12, (2E)-1-(5-methyl-3-nitro-2-hydroxyphenyl)-3-phenyl-2-propen-1-one] | < 20 | + (inhibition 20–40% (+)) | > 90 | – | 10.8 ± 3.6 | spontaneous locomotor activity vs VEH [7]: None of the mice treated with chalcone 12 showed any failure in their locomotion; reaction (latency) time against thermal stimulus vs VEH [11]: significant increases; also recorded: significantly increased; viability at 48 h, 20 µM [8]: 74.8%; Papp at 16 h, 50 µM [9]: 33.9 ×10⁻⁶ cm/s; BBB penetration estimation Prediction [9]: CNS+ (CNS+, -logPe < 5.6, high permeability); inhibition of constrictions compared to VEH ([12]; 3 mg/kg i.p.): 59.7%; inhibition of constrictions compared to VEH ([12]; 10 mg/kg i.p.): 62.6%; number of writhes vs VEH ([12]; 10 mg/kg i.p.): significantly reduced; inhibition of constrictions compared to VEH ([12]; 30 mg/kg i.p.): 96.1%; balance on the Rotarod [14]: did not produce neurotoxicity or motor impairment
17 | Nc1ccc(C(=O)/C=C/c2ccccc2)cc1 [Compound 14, (2E)-1-(4-aminophenyl)-3-phenyl-2-propen-1-one] | 40 to 60 | +++ (inhibition 60–90% (+++)) | 60 to 90 | – | 59.4 ± 1.5 | –
18 | O=C(/C=C/c1cccc(Cl)c1)c1ccccc1 [Compound 18, (2E)-3-(3-chlorophenyl)-1-phenyl-2-propen-1-one] | 20 to 40 | ++ (inhibition 40–60% (++)) | 20 to 40 | – | – | –
19 | O=C(/C=C/c1ccccc1)c1ccccc1O [Compound 2, (2E)-1-(2-hydroxyphenyl)-3-phenyl-2-propen-1-one] | 60 to 90 | +++ (inhibition 60–90% (+++)) | 20 to 40 | 71.4 ± 1.4 | – | –
20 | O=C(/C=C/c1cccc([N+](=O)[O-])c1)c1ccccc1 [Compound 16, (2E)-3-(3-nitrophenyl)-1-phenyl-2-propen-1-one] | 40 to 60 | ++++ (inhibition >90% (++++)) | < 20 | – | – | number of total arm entries vs VEH [10, 15]: significantly increased
21 | O=C(/C=C/c1ccc([N+](=O)[O-])cc1)c1ccccc1 [Compound 17, (2E)-3-(4-nitrophenyl)-1-phenyl-2-propen-1-one] | < 20 | - (inhibition <20% (-)) | 20 to 40 | – | – | –
22 | CN(C)CCCN1c2ccccc2CCc2ccccc21 [IMP, imipramine hydrochloride, reference compound] | – | – | – | – | – | immobility time vs VEH ([13]; 30 mg/kg i.p.): significantly reduced
23 | Cc1cc(O)c(C(=O)/C=C/c2ccccc2)cc1C [Compound 11, (2E)-1-(4,5-dimethyl-2-hydroxyphenyl)-3-phenyl-2-propen-1-one] | 60 to 90 | + (inhibition 20–40% (+)) | 60 to 90 | 164 ± 1.47 | 29.1 ± 8.5 | –
24 | COc1ccc(O)c(C(=O)/C=C/c2ccccc2)c1 [Compound 4, (2E)-1-(2-hydroxy-5-methoxyphenyl)-3-phenyl-2-propen-1-one] | 60 to 90 | +++ (inhibition 60–90% (+++)) | 60 to 90 | 303 ± 1.2 | 54.6 ± 2.9 | –
25 | O=C(/C=C/c1cccc(Br)c1)c1ccc(O)cc1O [3-bromo-2′,4′-dihydroxychalcone] | – | – | – | – | – | lethality in the yohimbine-induced mortality test [4]: enhanced the mouse lethality; head-twitches in the 5-HT induced head-twitch test [5]: significantly increased head-twitches

— PMC6430037 (Heliyon, 2019)
